Data: PMC9234961 (Journal of Medicinal Chemistry, 2022)
pEC50, pIC50: −log10 of the molar value.

What was measured:
Type in all cases: cell-based
[1] = molecular target: T1, ADRA1A (Homo sapiens, UniProt P35348); assay: SAFETYScan GPCR Calcium Flux, Agonist
T1 sequence (P35348 1-466): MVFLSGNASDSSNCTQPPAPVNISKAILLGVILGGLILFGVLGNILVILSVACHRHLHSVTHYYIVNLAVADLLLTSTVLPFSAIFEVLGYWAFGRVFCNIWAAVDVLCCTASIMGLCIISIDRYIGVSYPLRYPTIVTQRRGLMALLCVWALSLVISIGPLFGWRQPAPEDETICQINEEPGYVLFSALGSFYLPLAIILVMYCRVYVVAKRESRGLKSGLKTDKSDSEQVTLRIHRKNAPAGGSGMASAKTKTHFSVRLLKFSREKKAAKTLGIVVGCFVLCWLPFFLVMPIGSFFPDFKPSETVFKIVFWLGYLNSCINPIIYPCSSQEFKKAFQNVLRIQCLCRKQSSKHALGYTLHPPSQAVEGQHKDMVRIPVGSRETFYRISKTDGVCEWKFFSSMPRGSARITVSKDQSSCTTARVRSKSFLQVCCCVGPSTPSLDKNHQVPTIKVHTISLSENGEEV
Excerpt: (§1) Supplement jm1c02175_si_002.xlsx, sheet "SAFETYScan" | column: RC50 (uM); Max Response

[2] = molecular target: T2, AVPR1A (Homo sapiens, UniProt P37288); assay: SAFETYScan GPCR Calcium Flux, Agonist
Excerpt: as §1

[3] = molecular target: T3, CCKAR (Homo sapiens, UniProt P32238); assay: SAFETYScan GPCR Calcium Flux, Agonist
T3 sequence (P32238 1-428): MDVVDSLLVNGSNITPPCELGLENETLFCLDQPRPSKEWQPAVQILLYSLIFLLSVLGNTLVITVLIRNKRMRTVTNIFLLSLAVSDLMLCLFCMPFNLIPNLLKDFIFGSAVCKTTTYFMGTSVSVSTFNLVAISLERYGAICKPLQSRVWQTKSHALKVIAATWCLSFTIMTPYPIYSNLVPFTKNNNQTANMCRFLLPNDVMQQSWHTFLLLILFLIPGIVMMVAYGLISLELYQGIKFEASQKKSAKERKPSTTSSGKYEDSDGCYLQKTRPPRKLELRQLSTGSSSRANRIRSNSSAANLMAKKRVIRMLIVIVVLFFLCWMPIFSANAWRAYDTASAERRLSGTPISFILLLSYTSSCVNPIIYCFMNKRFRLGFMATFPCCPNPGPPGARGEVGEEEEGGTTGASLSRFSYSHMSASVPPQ
Excerpt: as §1

[4] = molecular target: T4, EDNRA (Homo sapiens, UniProt P25101); assay: SAFETYScan GPCR Calcium Flux, Agonist
T4 sequence (P25101 21-427): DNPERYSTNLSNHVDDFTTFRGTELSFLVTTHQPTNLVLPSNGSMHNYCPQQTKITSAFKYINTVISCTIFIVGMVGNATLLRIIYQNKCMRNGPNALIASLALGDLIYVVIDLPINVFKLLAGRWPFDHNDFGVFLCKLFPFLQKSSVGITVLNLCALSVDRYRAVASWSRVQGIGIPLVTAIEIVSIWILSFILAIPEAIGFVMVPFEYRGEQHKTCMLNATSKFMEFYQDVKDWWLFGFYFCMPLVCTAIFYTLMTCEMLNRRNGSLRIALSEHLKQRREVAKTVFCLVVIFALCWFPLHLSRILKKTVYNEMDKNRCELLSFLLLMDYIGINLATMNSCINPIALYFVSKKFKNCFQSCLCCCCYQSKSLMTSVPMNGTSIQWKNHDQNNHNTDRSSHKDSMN
Excerpt: as §1

[5] = molecular target: T5, HTR2A (Homo sapiens, UniProt P28223); assay: SAFETYScan GPCR Calcium Flux, Agonist
Excerpt: as §1

[6] = molecular target: T6, HTR2B (Homo sapiens, UniProt P41595); assay: SAFETYScan GPCR Calcium Flux, Agonist
T6 construct: expressed in transfected cells
Excerpt: as §1

[7] = molecular target: ADORA2A (Homo sapiens, UniProt P29274); assay: SAFETYScan GPCR Calcium Flux, Antagonist
Excerpt: as §1

[8] = molecular target: T1, ADRA1A; assay: SAFETYScan GPCR Calcium Flux, Antagonist
Excerpt: as §1

[9] = molecular target: T2, AVPR1A; assay: SAFETYScan GPCR Calcium Flux, Antagonist
Excerpt: as §1

[10] = molecular target: T3, CCKAR; assay: SAFETYScan GPCR Calcium Flux, Antagonist
Excerpt: as §1

[11] = molecular target: T7, CHRM1 (Homo sapiens, UniProt P11229); assay: SAFETYScan GPCR Calcium Flux, Antagonist
T7 sequence (P11229 1-460): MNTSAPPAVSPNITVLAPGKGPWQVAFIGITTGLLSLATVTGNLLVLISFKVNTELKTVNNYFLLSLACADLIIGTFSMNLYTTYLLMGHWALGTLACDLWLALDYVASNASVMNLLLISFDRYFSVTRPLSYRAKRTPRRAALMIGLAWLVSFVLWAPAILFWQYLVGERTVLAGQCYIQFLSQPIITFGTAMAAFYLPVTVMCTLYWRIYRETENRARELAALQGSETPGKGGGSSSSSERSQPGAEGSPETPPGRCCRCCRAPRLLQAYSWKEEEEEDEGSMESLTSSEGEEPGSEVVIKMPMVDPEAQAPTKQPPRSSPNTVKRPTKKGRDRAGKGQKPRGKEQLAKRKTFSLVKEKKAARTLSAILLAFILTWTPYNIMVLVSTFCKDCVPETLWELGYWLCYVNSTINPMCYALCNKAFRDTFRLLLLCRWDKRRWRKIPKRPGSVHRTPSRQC
Excerpt: as §1

[12] = molecular target: CHRM3 (Homo sapiens, UniProt P20309); assay: SAFETYScan GPCR Calcium Flux, Antagonist
Excerpt: as §1

[13] = molecular target: T4, EDNRA; assay: SAFETYScan GPCR Calcium Flux, Antagonist
Excerpt: as §1

[14] = molecular target: HRH1 (Homo sapiens, UniProt P35367); assay: SAFETYScan GPCR Calcium Flux, Antagonist
Excerpt: as §1

[15] = molecular target: T5, HTR2A; assay: SAFETYScan GPCR Calcium Flux, Antagonist
Excerpt: as §1

[16] = molecular target: T6, HTR2B; assay: SAFETYScan GPCR Calcium Flux, Antagonist
Excerpt: as §1

T6 sequence (P41595 whole entry): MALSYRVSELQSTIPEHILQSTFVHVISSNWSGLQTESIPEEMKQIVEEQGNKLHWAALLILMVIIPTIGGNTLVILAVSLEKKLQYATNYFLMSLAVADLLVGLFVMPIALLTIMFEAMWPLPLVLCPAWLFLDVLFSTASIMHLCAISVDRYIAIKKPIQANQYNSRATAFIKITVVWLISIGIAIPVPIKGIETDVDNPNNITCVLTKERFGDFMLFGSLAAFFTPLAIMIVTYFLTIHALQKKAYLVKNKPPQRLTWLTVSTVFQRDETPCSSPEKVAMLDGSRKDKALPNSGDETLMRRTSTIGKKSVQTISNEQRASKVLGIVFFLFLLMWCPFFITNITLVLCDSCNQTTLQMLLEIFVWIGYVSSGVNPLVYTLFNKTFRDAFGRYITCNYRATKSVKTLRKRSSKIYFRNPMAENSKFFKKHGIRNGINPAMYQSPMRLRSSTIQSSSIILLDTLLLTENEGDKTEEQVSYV
T2 sequence (P37288 whole entry): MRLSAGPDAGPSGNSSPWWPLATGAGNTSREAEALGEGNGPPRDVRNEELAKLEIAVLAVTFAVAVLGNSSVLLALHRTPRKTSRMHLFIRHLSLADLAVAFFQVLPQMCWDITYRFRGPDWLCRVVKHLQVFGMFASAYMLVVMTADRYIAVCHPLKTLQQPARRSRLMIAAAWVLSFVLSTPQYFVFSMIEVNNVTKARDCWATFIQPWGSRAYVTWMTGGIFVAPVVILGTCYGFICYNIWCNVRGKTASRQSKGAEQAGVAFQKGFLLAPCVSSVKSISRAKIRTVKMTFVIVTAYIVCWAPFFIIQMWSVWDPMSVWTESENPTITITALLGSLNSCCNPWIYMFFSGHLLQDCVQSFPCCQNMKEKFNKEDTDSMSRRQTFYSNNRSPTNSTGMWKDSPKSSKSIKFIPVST
T5 sequence (P28223 whole entry): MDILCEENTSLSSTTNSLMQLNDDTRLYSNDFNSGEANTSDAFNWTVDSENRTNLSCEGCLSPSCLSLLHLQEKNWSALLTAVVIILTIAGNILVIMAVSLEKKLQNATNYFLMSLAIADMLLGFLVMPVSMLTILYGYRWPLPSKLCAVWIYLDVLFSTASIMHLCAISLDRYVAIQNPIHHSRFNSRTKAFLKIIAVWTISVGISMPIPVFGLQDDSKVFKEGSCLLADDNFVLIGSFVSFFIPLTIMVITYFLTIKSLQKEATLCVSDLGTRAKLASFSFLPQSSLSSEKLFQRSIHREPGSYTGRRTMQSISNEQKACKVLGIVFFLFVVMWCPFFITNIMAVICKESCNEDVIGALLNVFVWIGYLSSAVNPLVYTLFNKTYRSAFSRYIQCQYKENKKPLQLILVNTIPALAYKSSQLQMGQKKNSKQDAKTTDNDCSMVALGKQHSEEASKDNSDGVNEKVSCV
Sequence of CHRM3 (P20309 whole entry): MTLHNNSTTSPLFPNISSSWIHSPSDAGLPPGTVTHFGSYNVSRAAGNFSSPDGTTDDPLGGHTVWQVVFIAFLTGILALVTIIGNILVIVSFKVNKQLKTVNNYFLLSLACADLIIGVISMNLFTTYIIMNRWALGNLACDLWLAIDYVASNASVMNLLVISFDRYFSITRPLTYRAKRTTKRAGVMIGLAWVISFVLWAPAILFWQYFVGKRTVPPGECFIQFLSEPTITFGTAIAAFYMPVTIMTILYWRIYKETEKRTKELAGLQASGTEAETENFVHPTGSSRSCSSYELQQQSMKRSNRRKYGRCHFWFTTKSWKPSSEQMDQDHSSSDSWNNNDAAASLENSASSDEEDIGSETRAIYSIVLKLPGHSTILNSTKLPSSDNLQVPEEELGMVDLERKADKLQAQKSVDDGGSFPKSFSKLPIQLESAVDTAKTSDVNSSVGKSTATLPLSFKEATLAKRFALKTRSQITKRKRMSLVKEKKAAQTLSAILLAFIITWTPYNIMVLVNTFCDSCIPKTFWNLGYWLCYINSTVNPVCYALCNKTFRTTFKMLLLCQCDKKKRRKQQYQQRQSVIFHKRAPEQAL
Sequence of ADORA2A (P29274 whole entry): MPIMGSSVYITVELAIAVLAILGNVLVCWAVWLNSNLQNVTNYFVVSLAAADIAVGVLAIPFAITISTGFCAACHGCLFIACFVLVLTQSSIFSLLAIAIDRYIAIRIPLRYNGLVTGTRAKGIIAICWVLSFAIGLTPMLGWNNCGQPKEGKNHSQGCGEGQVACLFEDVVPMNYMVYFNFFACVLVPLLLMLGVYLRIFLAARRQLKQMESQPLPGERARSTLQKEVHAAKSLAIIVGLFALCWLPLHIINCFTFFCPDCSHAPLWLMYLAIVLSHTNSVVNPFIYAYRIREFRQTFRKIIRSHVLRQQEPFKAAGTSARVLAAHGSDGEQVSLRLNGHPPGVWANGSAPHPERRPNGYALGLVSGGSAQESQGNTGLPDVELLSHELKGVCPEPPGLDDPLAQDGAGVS
Sequence of HRH1 (P35367 whole entry): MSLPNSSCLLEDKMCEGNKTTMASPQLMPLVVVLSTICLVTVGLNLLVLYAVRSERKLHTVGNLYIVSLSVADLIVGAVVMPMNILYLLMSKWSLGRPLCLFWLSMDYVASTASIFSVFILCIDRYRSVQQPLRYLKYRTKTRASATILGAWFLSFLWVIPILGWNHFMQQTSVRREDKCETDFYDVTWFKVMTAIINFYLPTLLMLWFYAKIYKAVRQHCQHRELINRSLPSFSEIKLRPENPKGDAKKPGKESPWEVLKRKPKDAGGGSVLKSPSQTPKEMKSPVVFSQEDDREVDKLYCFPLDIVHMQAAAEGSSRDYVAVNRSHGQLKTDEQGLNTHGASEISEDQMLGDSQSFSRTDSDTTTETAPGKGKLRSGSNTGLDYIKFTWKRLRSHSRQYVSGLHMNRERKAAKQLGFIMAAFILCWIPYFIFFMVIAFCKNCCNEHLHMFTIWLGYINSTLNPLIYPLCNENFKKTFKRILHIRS

SMILES: C[C@H]1C[C@@H](O)CN(c2ncc(Cl)c(Nc3ccc4c(c3)c3c(c(=O)n4C)OCC(F)(F)[C@H](C4CC4)N3)n2)C1 [12a CCT373566, (S)-10-((5-Chloro-2-((3R,5S)-3-hydroxy-5-methylpiperidin-1-yl)pyrimidin-4-yl)amino)-2-cyclopropyl-3,3-difluoro-7-methyl-1,2,3,4-tetrahydro-[1,4]oxazepino[2,3-c]quinolin-6(7H)-one]
- Emax ([1]; read-out: Max Response): 5.05%
- pEC50 ([1]; read-out: RC50 (EC50)): < 5.00
- Emax ([2]; read-out: Max Response): 4.09%
- pEC50 ([2]; read-out: RC50 (EC50)): < 5.00
- Emax ([3]; read-out: Max Response): 2.17%
- pEC50 ([3]; read-out: RC50 (EC50)): < 5.00
- Emax ([4]; read-out: Max Response): 0.25%
- pEC50 ([4]; read-out: RC50 (EC50)): < 5.00
- Emax ([5]; read-out: Max Response): 0%
- pEC50 ([5]; read-out: RC50 (EC50)): < 5.00
- Emax ([6]; read-out: Max Response): 1.98%
- pEC50 ([6]; read-out: RC50 (EC50)): < 5.00
- Emax ([7]; read-out: Max Response): 4.91%
- pIC50 ([7]; read-out: RC50 (IC50)): < 5.00
- Emax ([8]; read-out: Max Response): 0%
- pIC50 ([8]; read-out: RC50 (IC50)): < 5.00
- Emax ([9]; read-out: Max Response): 0%
- pIC50 ([9]; read-out: RC50 (IC50)): < 5.00
- Emax ([10]; read-out: Max Response): 0%
- pIC50 ([10]; read-out: RC50 (IC50)): < 5.00
- Emax ([11]; read-out: Max Response): 3.44%
- pIC50 ([11]; read-out: RC50 (IC50)): < 5.00
- Emax ([12]; read-out: Max Response): 0%
- pIC50 ([12]; read-out: RC50 (IC50)): < 5.00
- Emax ([13]; read-out: Max Response): 0%
- pIC50 ([13]; read-out: RC50 (IC50)): < 5.00
- Emax ([14]; read-out: Max Response): 0%
- pIC50 ([14]; read-out: RC50 (IC50)): < 5.00
- Emax ([15]; read-out: Max Response): 1.76%
- pIC50 ([15]; read-out: RC50 (IC50)): < 5.00
- Emax ([16]; read-out: Max Response): 24.2%
- pIC50 ([16]; read-out: RC50 (IC50)): < 5.00
